For 41 compounds, EC50 results are on record in patent US9018224B2, “Substituted cyclopropyl compounds useful as GPR119 agonists” (Merck Sharp & Dohme Corp., priority 2011, dated 2015).

For this assay, the target named is T1, human GPR119 (Homo sapiens, UniProt Q8TDV5).
T1 sequence (Q8TDV5 1-308 limits assumed): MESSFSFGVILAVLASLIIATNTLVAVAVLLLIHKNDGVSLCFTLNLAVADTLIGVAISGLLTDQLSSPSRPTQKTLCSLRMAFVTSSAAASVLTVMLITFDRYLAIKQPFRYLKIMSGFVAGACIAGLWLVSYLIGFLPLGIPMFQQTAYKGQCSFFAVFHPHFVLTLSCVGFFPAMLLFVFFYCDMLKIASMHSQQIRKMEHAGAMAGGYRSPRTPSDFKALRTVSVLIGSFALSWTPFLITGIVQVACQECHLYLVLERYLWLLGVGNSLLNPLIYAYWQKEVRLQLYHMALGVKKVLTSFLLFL
Briefly: Measurement of GPR119 signaling by cAMP (LANCE cAMP kit or HTRF) in HEK293 cells transfected with human GPR119. The assay is classed as cell-based. Particulars: agonist cAMP response in HEK293 cells stably transfected with human GPR119; patent does not say which of the two cAMP formats (LANCE or HTRF). The protocol:
Measurement of GPR119 Signaling Using LANCE 384-Well cAMP Kit
The adenylate cyclase assay was constructed following the LANCE™ cAMP Kit (Perkin Elmer, AD0264) instructions. […] The reaction was stopped by incubating with the supplied detection buffer containing the europium chelate of the Eu-SA/Biotin-cAMP tracer for 3 hours. The assay was performed in duplicate in a 384 well plate for duplicate plates. […] Basal activity was determined using a DMSO control and maximum response was defined as cAMP stimulation produced by an internal agonist control. Standard cAMP concentrations were assayed concurrently for conversion of fluorescence signal to cAMP level. The data was analyzed using 4-parameter curve fit in Microsoft Excel
Measurement of GPR119 Signaling Using a Cyclic AMP (cAMP) Homogenous Time Resolved Fluorescence (HTRF) Assay
Chinese hamster ovary (CHO) cell lines stably transfected with the permissive guanine nucleotide binding protein alpha 15 (Gα15) and murine GPR119 were maintained in DMEM media containing FBS, penicillin-streptomycin, puromycin, and G418 (geneticin). […] Agonist activation of the GPR119 receptor was measured in receptor transfected cells described above, treated with compounds of this invention, using a commercial homogenous time resolved fluorescence (HTRF) kit for measurement of cAMP (CisBio, Bedford, Mass.). The assay was performed in 96-well half-volume plates (murine) or 384-well plates (human) following the manufacturers instructions. Briefly, suspended cells were incubated with a dose titration of test compound at room temperature for 60 min, lysed, and incubated with HTRF reagents for an additional 60 min. The plate was read using an Envision multilabel reader (Perkin Elmer) adjusted to read time resolved fluorescence and the cAMP concentrations were extrapolated from a cAMP calibration curve. […] The concentration of test compound required to stimulate a half-maximal response (EC50), and efficacy as compared to an internal agonist control, was determined from a sigmoidal 4-parameter curve fit of the resulting plot of normalized activity versus compound concentration.
In general terms: Time-resolved FRET reads energy transfer from a long-lived donor to a nearby acceptor.
By EC50 is commonly meant the concentration giving half of the maximal effect. A lower EC50 goes with greater potency. As for `CCOCc1cnc(N2CCC([C@H]3C[C@H]3CCOc3ccc(CC(=O)N4CC(O)C4)c(F)c3)CC2)nc1` [Example 199, 2-(4-{2-[(1S,2R)-2-{1-[5-(ethoxymethyl)pyrimidin-2-yl]piperidin-4-yl}cyclopropyl]ethoxy}-2-fluorophenyl)-1-(3-hydroxyazetidin-1-yl)ethanone], the midpoint of the response, the EC50, lay at 1.9 nM.
`O=C(Cc1ccc(OCC[C@@H]2C[C@@H]2C2CCN(c3ncc(Cl)cn3)CC2)cc1F)N1CC(F)(F)C1` [Example 71] yielded an EC50 of 1.2 nM.
Regarding `COC(=O)C1CN1C(=O)Cc1ccc(OCC[C@@H]2C[C@@H]2C2CCN(c3ncc(Cl)cn3)CC2)cc1F` (some centres unmarked) [Example 107], the EC50 came to 8.9 nM. This EC50 is about 7.4-fold higher than that of the compound before.
Regarding `COC1CN(C(=O)Cc2ccc(OCC[C@@H]3C[C@@H]3C3CCN(c4ncc(Cl)cn4)CC3)cc2F)C1` [Example 69], the EC50 was found to be 0.17 nM.
Turning to `COCc1cnc(N2CCC([C@H]3C[C@H]3CCOc3ccc(CC(=O)N4CCC4)c(Cl)c3)CC2)nc1` [Example 22], a half-maximal response (EC50) required 0.83 nM. This EC50 lies about 4.9-fold higher than the previous one.
Compound `O=C(Cc1ccc(OCC[C@@H]2C[C@@H]2C2CCN(c3ncc(Cl)cn3)CC2)cc1F)N1CCn2cnnc2C1` [Example 138] had a concentration for a half-maximal effect (EC50) of 1.5 nM.
In turn, `COCc1cnc(N2CCC([C@H]3C[C@H]3CCOc3ccc(CC(=O)N4CCc5nn[nH]c5C4)c(F)c3)CC2)nc1` [Example 57] showed an EC50 of 3 nM. Compared with the last compound, the EC50 is about 2-fold higher.
As for `COCc1cnc(N2CCC([C@H]3C[C@H]3CCOc3cc(F)c(CC(=O)N4CC(O)C4)c(F)c3)CC2)nc1` [Example 218, 1-({2,6-difluoro-4-[2-((1S,2R)-2-{1-[5-(methoxymethyl)pyrimidin-2-yl]piperidin-4-yl}cyclopropyl)ethoxy]phenyl}acetyl)azetidin-3-ol], the figure is 1.6 nM; as for `O=C(Cc1ccc(OCC[C@@H]2C[C@@H]2C2CCN(c3ncc(Cl)cn3)CC2)cc1F)N1Cc2cn[nH]c2C1` [Example 120], 1 nM.
With `COc1cnc(N2CCC([C@H]3C[C@H]3CCOc3cc(F)c(CC(=O)N4CC(F)C4)c(F)c3)CC2)nc1` [Example 216] the figure was 0.09 nM; with `CC1c2nnc(C(F)(F)F)n2C(C)CN1C(=O)Cc1ccc(OCC[C@@H]2C[C@@H]2C2CCN(c3ncc(Cl)cn3)CC2)cc1F` (some centres unmarked) [Example 193], 1.1 nM.
With `COc1cnc(N2CCC([C@H]3C[C@H]3CCOc3cc(F)c(CC(=O)N(C)C)c(F)c3)CC2)nc1` [Example 213] the figure was 0.23 nM.
`COCc1cnc(N2CCC([C@H]3C[C@H]3CCOc3ccc(CC(=O)N4CC(F)C4)cc3)CC2)nc1` [Example 11] had an EC50 of 2.9 nM.
In the case of `CC1c2cccn2CCN1C(=O)Cc1ccc(OCC[C@@H]2C[C@@H]2C2CCN(c3ncc(Cl)cn3)CC2)cc1F` (some centres unmarked) [Example 174], the concentration giving a half-maximal response (EC50) turned out to be 1.2 nM.
With `CC1(NC(=O)Cc2ccc(OCC[C@@H]3C[C@@H]3C3CCN(c4ncc(Cl)cn4)CC3)cc2F)CC1` [Example 93] the figure was 3.7 nM.
In turn, `Cn1ccc2c1CCN(C(=O)Cc1ccc(OCC[C@@H]3C[C@@H]3C3CCN(c4ncc(Cl)cn4)CC3)cc1F)C2` [Example 145] came in with a 50% effective concentration (EC50) of 6.3 nM.
Turning to `O=C(Cc1ccc(OCC[C@@H]2C[C@@H]2C2CCN(c3ncc(Cl)cn3)CC2)nc1)N1CCC1` [Example 242], the concentration giving a half-maximal response (EC50) turned out to be 9.4 nM.
`O=C(Cc1ccc(OCC[C@@H]2C[C@@H]2C2CCN(c3ncc(Cl)cn3)CC2)cc1F)N1CCn2nc(C3CC3)nc2C1` [Example 148] had an EC50 of 1.2 nM. This EC50 is about 7.8-fold lower than that of the compound before.
As for `Cn1nc(C(F)(F)F)c2c1CN(C(=O)Cc1ccc(OCC[C@@H]3C[C@@H]3C3CCN(c4ncc(Cl)cn4)CC3)cc1F)CC2` [Example 189], the figure is 6 nM; as for `COc1cnc(N2CCC([C@H]3C[C@H]3CCOc3cc(F)c(CC(=O)N4CC(O)C4)c(F)c3)CC2)nc1` [Example 210, 2-[2,6-difluoro-4-(2-{(1S,2R)-2-[1-(5-methoxypyrimidin-2-yl)piperidin-4-yl]cyclopropyl}ethoxy)phenyl]-1-(3-hydroxyazetidin-1-yl)ethanone], 0.59 nM; as for `COCc1cnc(N2CCC([C@H]3C[C@H]3CCOc3ccc(CC(=O)N4CC(C)(O)C4)c(F)c3)CC2)nc1` [Example 44], 3.6 nM.
With `NC(=O)C1CCN1C(=O)Cc1ccc(OCC[C@@H]2C[C@@H]2C2CCN(c3ncc(Cl)cn3)CC2)cc1F` (some centres unmarked) [Example 106] the figure was 4.3 nM.
The compound `CCN(C(=O)Cc1ccc(OCC[C@@H]2C[C@@H]2C2CCN(c3ncc(Cl)cn3)CC2)cc1F)C(C)C` [Example 102] showed a half-maximal effective concentration (EC50) of 3 nM. The EC50 values of the last two compounds are within 1.5-fold of each other.
In the case of `CCOCc1cnc(N2CCC([C@H]3C[C@H]3CCOc3ccc(CC(=O)N4CC(F)C4)c(F)c3)CC2)nc1` [Example 201], the EC50 is 0.49 nM. Against the preceding compound, the EC50 is about 6.1-fold lower.
As for `Cc1nc2c(s1)CN(C(=O)Cc1ccc(OCC[C@@H]3C[C@@H]3C3CCN(c4ncc(Cl)cn4)CC3)cc1F)CC2` [Example 176], the concentration giving a half-maximal response (EC50) is 0.78 nM.
Take `O=C(Cc1ccc(OCC[C@@H]2C[C@@H]2C2CCN(c3ncc(Cl)cn3)CC2)cc1F)NCC1CCCCC1` [Example 112]: the EC50 was 6.1 nM.
Take `COCc1cnc(N2CCC([C@H]3C[C@H]3CCOc3ccc(CC(=O)N4CC(OC)C4)c(Cl)c3)CC2)nc1` [Example 30]: the concentration for a half-maximal effect (EC50) amounted to 0.86 nM.
For `CN(C(=O)Cc1ccc(OCC[C@@H]2C[C@@H]2C2CCN(c3ncc(Cl)cn3)CC2)cc1F)C1CCOC1` (some centres unmarked) [Example 154], the EC50 was 0.41 nM. Compared with the last compound, the EC50 is about 2.1-fold lower.
The compound `COCc1cnc(N2CCC([C@H]3C[C@H]3CCOc3ccc(CC(=O)N4CC(F)(F)C4)cc3)CC2)nc1` [Example 12] came in with an EC50 of 3 nM. This EC50 lies about 7.3-fold higher than the previous one.
With `COCc1cnc(N2CCC([C@H]3C[C@H]3CCOc3ccc(CC(=O)N4CCn5cnnc5C4)c(F)c3)CC2)nc1` [Example 59], the concentration giving a half-maximal response (EC50) was 7.3 nM.
With `O=C(Cc1ccc(OCC[C@@H]2C[C@@H]2C2CCN(c3ncc(Cl)cn3)CC2)cc1F)N1CCC[C@@H]1C(F)(F)F` [Example 76] the figure was 2.4 nM; with `COCc1cnc(N2CCC([C@H]3CC3CCOc3cc(F)c(CCO)c(F)c3)CC2)nc1` (stereo in doubt) [Example 240, 2-{2,6-Difluoro-4-[2-((1R,2R)-2-{1-[5-(methoxymethyl)pyrimidin-2-yl]piperidin-4-yl}cyclopropyl)ethoxy]phenyl}ethanol], 7.2 nM; with `O=C(Cc1ccc(OCC[C@@H]2C[C@@H]2C2CCN(c3ncc(Cl)cn3)CC2)cc1F)N1CCCCC1` [Example 84], 1.5 nM.
`N#Cc1cc(OCC[C@@H]2C[C@@H]2C2CCN(c3ncc(Cl)cn3)CC2)ccc1CC(=O)N1CCC1` [Example 23, 2-[2-(azetidin-1-yl)-2-oxoethyl]-5-(2-{(1S,2R)-2-[1-(5-chloropyrimidin-2-yl)piperidin-4-yl]cyclopropyl}ethoxy)benzonitrile] returned an EC50 of 0.32 nM.
On to `O=C(Cc1ccc(OCC[C@@H]2C[C@@H]2C2CCN(c3ncc(Cl)cn3)CC2)cc1Cl)N1CCC1` [Example 20, 1-(azetidin-1-yl)-2-[2-chloro-4-(2-{(1S,2R)-2-[1-(5-chloropyrimidin-2-yl)piperidin-4-yl]cyclopropyl}ethoxy)phenyl]ethanone], for which a half-maximal effect (EC50) was put at 0.32 nM.
In turn, `CNC(=O)Cc1c(F)cc(OCC[C@@H]2C[C@@H]2C2CCN(c3ncc(COC)cn3)CC2)cc1F` [Example 227] yielded an EC50 of 2.5 nM.
Turning to `O=C(Cc1ccc(OCC[C@@H]2C[C@@H]2C2CCN(c3ncc(Cl)cn3)CC2)cc1F)N1CCCC1CO` (some centres unmarked) [Example 108], the midpoint of the response, the EC50, lay at 2.5 nM.
As for `COCc1cnc(N2CCC([C@H]3C[C@H]3CCOc3ccc(CC(=O)N4C[C@H](F)[C@@H](F)C4)c(F)c3)CC2)nc1` [Example 50], the figure is 1 nM.
In turn, `COc1cnc(N2CCC([C@H]3C[C@H]3CCOc3ccc(CC(=O)N4CC(OC)C4)c(F)c3)CC2)nc1` [Example 34] registered an EC50 of 0.98 nM.
In turn, `CCOc1cnc(N2CCC([C@H]3C[C@H]3CCOc3cc(F)c(CC(=O)N(C)C)c(F)c3)CC2)nc1` [Example 234] registered an EC50 of 0.26 nM.
`CC(C)(O)Cn1cc2c(n1)CN(C(=O)Cc1ccc(OCC[C@@H]3C[C@@H]3C3CCN(c4ncc(Cl)cn4)CC3)cc1F)C2` [Example 124] registered an EC50 of 3.2 nM.
